Like-named read-outs stand apart in the source and are kept apart here.
Target: T1, FimHtrJ96 (Escherichia coli, UniProt P08191)
T1 construct: coding for the lectin domain of FimH (residues 1-158) with a C-terminal 6-histidine tag; made in house; host or cells: E. coli HB101 (lacking the fim operon), periplasmic extract, plasmid pPKL241
Assay: biochemical
Type: binding, uropathogenic E. coli strain J96
Description: To measure the dissociation constant for FimH:alkyl or aryl-mannoside binding, two different binding assays were developed. The first binding assay uses [^3H]-mannose. The amount of radioactively labeled mannose bound to FimHtrJ96 was measured at six different concentrations of [^3H]-mannose, and a hyperbolic curve fitted to the resulting data (FIG. 1A). FimHtrJ96 corresponds to the carbohydrate (mannose) binding domain of FimH from the uropathogenic E. coli strain J96. The dissociation equilibrium constant was determined from this graph at the concentration of mannose […], which corresponds to occupation of half of the binding sites.
Surface Plasmon Resonance measurements were performed on a Biacore3000™. In a first experiment, the kinetic constants and maximal binding were determined for the FimH-antibody interaction. Next, a fixed concentration of FimH (close to the KD of the FimH-antibody interaction) in combination with varying concentrations of carbohydrate, were used to determine the dissociation equilibrium constant of the FimH-saccharide interaction in a competition experiment. Every measurement was repeated at least twice, including testing the variation between different protein and saccharide batches.
To eliminate the possibility of different binding strength for full length FimH and FimHtrJ96, the binding of alpha-D-mannose to FimC:FimH complex was also measured. […] The inhibition of [^3H]-mannose binding was used in a displacement assay to determine the dissociation constant for a synthetic butyl mannoside by measuring the amount of [^3H]-mannose bound to the protein in the presence of increasing amounts of the inhibitor (FIG. 1B). […] To investigate the effect of sequential addition of methyl groups to the O1 oxygen of D-mannose, a series of alkyl mannosides were synthesized and the dissociation constants determined using the [^3H]-mannose displacement assay and by surface plasmon resonance (Table 1).
Surface Plasmon Resonance measurements were performed on a Biacore3000™. The Fab fragments of a monoclonal antibody against FimH were covalently immobilised via lysines at 1000 Resonance Units (1000 pg ligand/mm^2) in flowcell Fc2 on a CM5 biasensor chip (BIAapplications Handbook, Biacore AB, Uppsala, Sweden). Immobilisation buffer was 100 mM NaAc pH 5.0 with 100 mM NaCl. The reference flowcell Fc1 was left blank.
Binding of FimH to the immobilized antibody was measured with a Biacore 3000 instrument in running buffer (phosphate buffered saline with 0.005% surfactant P20 and 3 mM EDTA), on both flowcells Fc1 and Fc2 simultaneously, at a flow rate of 30 μl/min and at 25° C. Complete dissociation of FimH was done with running buffer before starting a new binding cycle. For all measurements, the association time was 3 minutes, the dissociation time was 30 min. All binding cycles were performed in duplicate, including a zero concentration cycle of FimH (injection of running buffer).
In a first experiment, the kinetic constants, ka and kd, and the maximal binding Rmax, were determined for the FimH-antibody interaction (FimH concentrations (nM): 2000, 1000, 500, 250, 125, 62.5, 31.25, 15.625, 7.818, 3.911, 1.957, 0). All analyses were performed with the BIAeval software. A Langmuir binding isotherm with a 1:1 stoichiometry was fitted to the data, from which the kinetic constants and maximal binding were obtained.
In the next experiment, samples containing a fixed concentration of FimH (close to the KD of the FimH-antibody interaction) in combination with varying concentrations of saccharide, were used to determine the dissociation constant of the FimH-saccharide interaction in a competition experiment. First, ten-fold dilutions of the saccharide solution were used to determine the concentration range for binding of the saccharide to FimH.

T1 sequence (P08191 22-179): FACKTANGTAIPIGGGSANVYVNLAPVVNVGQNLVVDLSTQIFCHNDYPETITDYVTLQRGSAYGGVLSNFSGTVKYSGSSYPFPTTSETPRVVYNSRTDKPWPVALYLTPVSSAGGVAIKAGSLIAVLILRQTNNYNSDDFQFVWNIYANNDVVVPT

In the case of OC[C@H]1O[C@H](O)[C@@H](O)[C@@H](O)[C@@H]1O [Mannose, α-D-mannose], the Kd is reported as 2.3 µM, the Kd (Table 1, O1 alkyl and aryl mannosides, SPR and displacement binding experiments) is reported as 2.3 µM and the “ΔG°” value (Table 1, calculated from KD) is reported as -7.6 kcal/mol. For the same compound, the “ΔG° J96” value (Table 3, calculated from KD) was -7.6 kcal/mol and the Kd (read-out: KD J96, Table 3, [3H]-mannose displacement assay (mannose measured directly)) was 2.3 µM.

— patent US20080171706A1, “Anti-Adhesive Compounds to Prevent and Treat Bacterial Infections” (priority 2004, published 2008)
